What was measured:
[1] = tested on: Pyricularia oryzae; assay: microbe, parasite or virus in culture; format: cell-based; conditions: 168 h, read-out: % control compared to the untreated check (radial growth)
[2] = tested on: Septoria lycopersici; assay: Septoria lycopersici (leaf spot of tomato) in vitro test, radial growth on Potato Dextrose Agar; format: cell-based; conditions: 168 h, seven days, 25° C., read-out: % control compared to the untreated check (radial growth)
[3] = tested on: Botrytis cinera; assay: Greenhouse Botrytis cinera test in tomato, preventive; format: in vivo; conditions: 24 h, plants sprayed one day before inoculation, read-out: Efficacy (% control), disease severity vs untreated check
[4] = tested on: Rhizoctonia solani; assay: Rhizoctonia solani (rice sheath blight/potato black scurf) in vitro test, radial growth on Potato Dextrose Agar; format: cell-based; conditions: 168 h, 300 ppm, seven days, 25° C., read-out: % control compared to the untreated check (radial growth)
[5] = tested on: Colletotrichum capsici; assay: Colletotrichum capsici (anthracnose) in vitro test, radial growth on Potato Dextrose Agar; format: cell-based; conditions: Colletotrichum truncatum, 168 h; 300 ppm; seven days, 25° C.; read-out: % control compared to the untreated check (radial growth)
[6] = tested on: Alternaria solani; assay: Alternaria solani (early blight of tomato/potato) in vitro test, radial growth on Potato Dextrose Agar; format: cell-based; conditions: 168 h, 300 ppm, seven days, 25° C., read-out: % control compared to the untreated check (radial growth)
[7] = tested on: Botrytis cinerea; assay: Botrytis cinerea (gray mold) in vitro test, radial growth on Potato Dextrose Agar; format: cell-based; conditions: 168 h, 300 ppm, seven days, 22° C., read-out: % (control) compared to the untreated check (radial growth)
[8] = tested on: Fusarium culmorum; assay: Fusarium culmorum (foot rot of cereals) in vitro test, radial growth on Potato Dextrose Agar; format: cell-based; conditions: Fusarium culmorum, 168 h, read-out: % control compared to the untreated check (radial growth)

Row | Compound | inhibition of growth at 300 ppm [1] | inhibition of growth at 300 ppm [2] | pest or weed control at 500 ppm [3] | inhibition of growth at 300 ppm [4] | inhibition of growth at 300 ppm [5] | inhibition of growth at 300 ppm [6] | inhibition of growth at 300 ppm [7] | inhibition of growth at 300 ppm [8]
1 | CCN(C)C=Nc1cc(C)c(Cc2cc(Cl)cc(Cl)c2)cc1C [Compound 3, N′-(4-(3,5-dichlorobenzyl)-2,5-dimethylphenyl)-N-ethyl-N-methylformimidamide] | > 75% | > 70% | 70 to 100% | > 80% | > 80% | > 75% | > 80% | –
2 | CCN(C)C=Nc1cc(C)c(Cc2ccc(Br)cc2)cc1C [Compound 4, N′-(4-(4-bromobenzyl)-2,5-dimethylphenyl)-N-ethyl-N-methylformimidamide] | > 75% | > 70% | 70 to 100% | > 80% | > 80% | > 75% | > 80% | 75%
3 | CCN(C)C=Nc1c(C)cc(Cc2ccc(Br)cc2)c(C)c1Br [Compound 10, N′-(2-bromo-4-(4-bromobenzyl)-3,6-dimethylphenyl)-N-ethyl-N-methylformimidamide] | > 75% | – | 70 to 100% | > 80% | > 80% | > 75% | > 80% | –
4 | CCN(C)C=Nc1cc(C)c(Cc2cccc(Cl)c2)cc1C [Compound 11, N′-(4-(3-chlorobenzyl)-2,5-dimethylphenyl)-N-ethyl-N-methylformimidamide] | > 75% | – | 70 to 100% | > 80% | > 80% | > 75% | > 80% | 75%
5 | CCN(C)C=Nc1cc(C)c(Cc2ccccc2[S+](C)[O-])cc1C (stereo not drawn) [Compound 24, N′-(2,5-dimethyl-4-(2-(methylsulfinyl)benzyl)phenyl)-N-ethyl-N-methylformimidamide] | > 75% | > 70% | 70 to 100% | > 80% | – | > 75% | – | –
6 | Cc1cc(N=CN(C#N)CC#N)c(C)cc1Cc1ccccc1Cl [Compound 90, N′-(4-(2-chlorobenzyl)-2,5-dimethylphenyl)-N-cyano-N-(cyanomethyl)formimidamide] | – | – | 70 to 100% | – | – | – | – | –
7 | CCN(C)C=Nc1cc(C)c(Cc2ccccc2OC(F)(F)F)cc1Cl [Compound 102, N′-(2-chloro-5-methyl-4-(2-(trifluoromethoxy)benzyl)phenyl)-N-ethyl-N-methylformimidamide] | > 75% | > 70% | 70 to 100% | > 80% | > 80% | > 75% | > 80% | –
8 | CCN(C)C=Nc1cc(C)c(Cc2cc(Cl)ccc2Cl)cc1Cl [Compound 166, N′-(2-chloro-4-(2,5-dichlorobenzyl)-5-methylphenyl)-N-ethyl-N-methylformimidamide] | > 75% | > 70% | 70 to 100% | > 80% | > 80% | > 75% | > 80% | –
9 | CCN(C)C=Nc1cc(C)c(Cc2c(F)cccc2Cl)cc1Cl [Compound 184, N′-(2-chloro-4-(2-chloro-6-fluorobenzyl)-5-methylphenyl)-N-ethyl-N-methylformimidamide] | > 75% | – | 70 to 100% | > 80% | > 80% | > 75% | > 80% | –
10 | CCN(C)C=Nc1cc(C)c(Cc2ccccc2F)cc1C1CC1 [Compound 221, N′-(2-cyclopropyl-4-(2-fluorobenzyl)-5-methylphenyl)-N-ethyl-N-methylformimidamide] | > 75% | > 70% | – | > 80% | > 80% | > 75% | > 80% | 75%
11 | CCN(C)C=Nc1cc(C)c(Cc2ccc(C)cc2)cc1C1CC1 [Compound 222, N′-(2-cyclopropyl-5-methyl-4-(4-methylbenzyl)phenyl)-N-ethyl-N-methylformimidamide] | > 75% | > 70% | – | > 80% | > 80% | > 75% | > 80% | 75%
12 | CCN(C)C=Nc1cc(C)c(Cc2ccccc2Cl)cc1C1CC1 [Compound 223, N′-(4-(2-chlorobenzyl)-2-cyclopropyl-5-methylphenyl)-N-ethyl-N-methylformimidamide] | > 75% | > 70% | – | > 80% | > 80% | > 75% | > 80% | 75%
13 | CCN(C)C=Nc1cc(C(F)(F)F)c(Cc2ccc(C)cc2)cc1F [Compound 225, N-ethyl-N′-(2-fluoro-4-(4-methylbenzyl)-5-(trifluoromethyl)phenyl)-N-methylformimidamide] | > 75% | > 70% | – | > 80% | > 80% | > 75% | > 80% | 75%
14 | CCN(C)C=Nc1cc(C#N)c(Cc2cccc(Cl)c2)cc1C [Compound 249, N′-(4-(3-chlorobenzyl)-5-cyano-2-methylphenyl)-N-ethyl-N-methylformimidamide] | > 75% | > 70% | – | > 80% | > 80% | > 75% | > 80% | 75%
15 | CCN(C)C=Nc1cc(Cl)c(Cc2ccccc2F)cc1C [Compound 256, N′-(5-chloro-4-(2-fluorobenzyl)-2-methylphenyl)-N-ethyl-N-methylformimidamide] | > 75% | > 70% | – | > 80% | > 80% | > 75% | > 80% | 75%
16 | CCN(C)C=Nc1cc(Cl)c(Cc2ccccc2C)cc1C [Compound 257, N′-(5-chloro-2-methyl-4-(2-methylbenzyl)phenyl)-N-ethyl-N-methylformimidamide] | > 75% | > 70% | – | > 80% | > 80% | > 75% | > 80% | 75%
17 | CCN(C)C=Nc1cc(Cl)c(Cc2cccc(Cl)c2)cc1C [Compound 258, N′-(5-chloro-4-(3-chlorobenzyl)-2-methylphenyl)-N-ethyl-N-methylformimidamide] | > 75% | > 70% | – | > 80% | > 80% | > 75% | > 80% | 75%
18 | CCN(C)C=Nc1cc(Cl)c(Cc2cccc(F)c2)cc1C [Compound 259, N′-(5-chloro-4-(3-fluorobenzyl)-2-methylphenyl)-N-ethyl-N-methylformimidamide] | > 75% | > 70% | – | > 80% | > 80% | > 75% | > 80% | 75%
19 | CCN(C)C=Nc1cc(Cl)c(Cc2ccc(C)cc2)cc1C [Compound 261, N′-(5-chloro-2-methyl-4-(4-methylbenzyl)phenyl)-N-ethyl-N-methylformimidamide] | > 75% | > 70% | – | > 80% | > 80% | > 75% | > 80% | 75%
20 | CCN(C)C=Nc1cc(C(F)(F)F)c(Cc2ccccc2Cl)cc1C1CC1 [Compound 262, N′-(4-(2-chlorobenzyl)-2-cyclopropyl-5-(trifluoromethyl)phenyl)-N-ethyl-N-methylformimidamide] | > 75% | > 70% | – | > 80% | > 80% | > 75% | > 80% | 75%
21 | CCN(C)C=Nc1cc(C(F)(F)F)c(Cc2cccc(C)c2)cc1C1CC1 [Compound 263, N′-(2-cyclopropyl-4-(3-methylbenzyl)-5-(trifluoromethyl)phenyl)-N-ethyl-N-methylformimidamide] | > 75% | > 70% | – | > 80% | > 80% | > 75% | > 80% | 75%
